Laboratory results: patent publication US20260232825A1, “LINKER-DRUG MOLECULE AND ANTIBODY DRUG CONJUGATE, PREPARATION METHOD THEREFOR AND USE THEREOF” (SHANGHAI ESCUGEN BIOTECHNOLOGY CO., LTD., priority 2023, published 2026)
pIC50: −log10 of the molar value. Read-outs that look alike come from different tables or passages of the source.

What was measured:
NUGC4-hClaudin18.2 cells = test: In vitro tumor cell killing activity, NUGC4-hClaudin18.2 cell line (CCK-8); type: cell-based; conditions: Homo sapiens, 120 h, read-out: IC50 values (nM)
Method: When the cell confluence was greater than 80%, the cells were passaged at a ratio of 1:3 to 1:10 every 3-4 days.
NUGC4-hClaudin18.2 cells were digested by a digestive solution of recombinant enzyme (TrypLE™ Express Enzyme). […] The cell density was adjusted to 3×10^4 cells/mL, inoculating into 96-well cell culture plate at 100 μL/well. The cells were cultured overnight at 37° C. in 5% CO2 incubator. The next day, 9D1 ADC and small molecular toxin were diluted 5 times in a series from 1000 nM (final concentration, 500 nM) with a total of 7-8 concentration points, simultaneously setting a negative control with a sample concentration of 0, and a blank control containing only medium without cells. The diluted sample was added to 96-well cell culture plate containing cells at 100 μL/well (two duplicated wells), then incubating at 37° C. in 5% CO2 incubator for 120 hours. 20 μL of CCK-8 detection reagent (Dongren Chemical, CAS #CK04) was added to each well, incubating at 37° C. for 3-4 hours. The OD values of each well in the ELISA plate were measured at a wavelength of 450 nm and a reference wavelength of 630 nm on a multifunctional enzyme-linked immunosorbent assay (ELISA) reader, for each well, OD value=0D450 nm−OD630 nm. The cell viability of the negative control was set to 100%, and the cell viability (%) of the experimental wells was calculated according to the following formula. […]

MC38-hClaudin18.2 cells = test: In vitro tumor cell killing activity, MC38-hClaudin18.2 cell line (AlamarBlue); type: cell-based, mouse
Method: 9D1 antibody-drug conjugates prepared in the previous Experimental Examples and Comparative Examples were used for performing in vitro killing test on MC38 cell lines stably expressing human Claudin18.2. MC38-hClaudin18.2 cells were inoculated into a 96-well cell culture plate at 3000 cells/well, adding gradient diluted 9D1 ADCs next day to culture for 48-72 hours. The fluorescence values of each experimental well were detected by AlamarBlue reagent (ThermoFisher, item number DAL1100), and the cell viability was calculated.
When the cell confluence was greater than 80%, the cells were passaged at a ratio of 1:10 to 1:20 every 3 days.
MC38-hClaudin18.2 cells were digested by a digestive solution of recombinant enzyme (TrypLE™ Express Enzyme). […] The cell density was adjusted to 3×10^4 cells/mL, inoculating into 96-well cell culture plate at 100 μL/well. The cells were cultured overnight at 37° C. in 5% C02 incubator. The next day, the test drug was diluted 10 times in a series with a total of 7-8 concentration points, simultaneously setting a blank control with a sample concentration of 0. The diluted sample was added to 96-well cell culture plate containing cells at 100 μL/well, then incubating at 37° C. in 5% CO2 incubator for 48-72 hours. 20 μL of AlamarBlue detection reagent was added to each well, incubating at 37° C. for 4-6 hours, the fluorescence signal intensity was detected on a multifunctional enzyme-linked immunosorbent assay (ELISA) instrument with an excitation wavelength of 560 nm and an emission wavelength of 590 nm.
The cell viability of the blank control was set to 100%, and the cell viability (%) of the experimental well was calculated by the following formula: […]
The detected average cell viability was takedn as the y-axis, a sigmoid dose response (Variable Slope) method (GraphPad Prism software, GraphPad Software, San Diego, California) was used for nonlinear regression to obtain the inhibitory effect curves of cell proliferation, and the corresponding IC50 values (half maximum inhibition concentration) were calculated. […]

[1] = tested on: HEK293-hClaudin18.2 cells; test: In vitro cell killing activity, HEK293-hClaudin18.2 cell line (AlamarBlue); type: cell-based
Method: HEK293-hClaudin18.2 cells were cultured in DMEM medium containing 10% FBS, supplemented with 250 μg/mL G418 to subject to adherent culture at 37° C. in 5% CO2 incubator. When the cell confluence was greater than 80%, the cells were passaged at a ratio of 1:20 to 1:40 every 3 days.
HEK293-hClaudin18.2 cells were digested by a digestive solution of recombinant enzyme (TrypLE™ Express Enzyme). After counting, an appropriate amount of cells were taken to resuspend with DMEM+10% FBS. The cell density was adjusted to 2×10^4 cells/mL, inoculating into 96-well cell culture plate at 100 μL/well. The cells were cultured overnight at 37° C. in 5% CO2 incubator. The next day, 9D1 ADC and small molecular toxin were diluted 10 times in a series from 1000 nM (final concentration, 500 nM) with a total of 7-8 concentration points, simultaneously setting a negative control with a sample concentration of 0, and a blank control containing only same volume (200 μL/well) of medium without cells. The diluted sample was added to 96-well cell culture plate containing cells at 100 μL/well (two duplicated wells), then incubating at 37° C. in 5% CO2 incubator for 72 hours. The cell viability was detected by the AlamarBlue detection method mentioned above, then processing data to calculate the IC50 values, and the results are shown in Table 5 below.

[2] = tested on: B16F10-hClaudin18.2 cells; test: Immunogenic cell death of B16F10-hClaudin18.2 cells (Calreticulin/PI FACS); type: cell-based; conditions: small molecular drug load 10 nM, 48 hours
Method: The B16F10-hClaudin18.2 cells were resuscitated and cultured in a medium of DMEM (Thermo, cat #: 10569044)^+10% FBS (Thermo, Cat #: 10099-141C)+0.5 μg/mL Puromycin to subject to adherent culture at 37° C. in 5% CO2 incubator. When the cell confluence was greater than 80%, the cells were passaged at a ratio of 1:10 to 1:20 every 3-4 days.
When the cells grew to a confluence of about 80%, the cells were digested by a digestive solution of recombinant enzyme (TrypLE™ Express Enzyme, Thermo, cat #: 12605028). Then the cells were resuspended with DMEM+10% FBS, and an appropriate volume was taken for counting. The cell density was adjusted to 1×10^4 cells/mL, and inoculated into 96-well cell plate at 100 μL/well to culture overnight at 37° C. in 5% CO2 incubator. The next day, the ADC drug was diluted with DMEM+10% FBS medium to a final concentration of 750 nM, the small molecule toxin Exatecan was diluted to a final concentration of 10 nM, and sample concentration of 0 was set as blank control. The diluted samples were respectively added to 96-well cell culture plate containing cells at 100 μL/well to incubate at 37° C. in 5% CO2 incubator for 48 hours. […]

[3] = tested on: MC38 hClaudin18.2 tumor (high expression of p-gp); test: Pharmacodynamics in p-gp mediated drug-resistant tumor bearing mouse model; type: in vivo; conditions: in words; ADC 10 mg/kg i.p. QW × 2, Tariquidar p.o. QD × 10
Method: Modeling and administration of tumor bearing mice: BALB/c Nude mice (female, 5-6 week old) were subcutaneously inoculated with MC38 hClaudin18.2 cells (1×10^6 cells in […]) on the ventral side. When the tumor volume increased to about 120 mm^3, the mice were randomly divided into groups and administered according to Table 10. The tumor and body weight were measured twice a week to calculate the tumor volumes (TV, mm^3) and plot the tumor growth curves. TV (mm^3)=(L×W^2)/2, wherein L represents tumor length, and W represents tumor width. GraphPad Prism software (GraphPad Software, San Diego, California) and XY mode were selected to plot the tumor growth curves and weight curves of mice, and the tumor volumes and weights were represented as mean±standard error.

SMILES | IC50 (NUGC4-hClaudin18.2 cells) [nM] | IC50 (MC38-hClaudin18.2 cells; Mus musculus, read-out: IC50 values (nM), MC38-hClaudin18.2 cells, 48-72 hours, AlamarBlue) [nM] | pIC50 (MC38-hClaudin18.2 cells; read-out: IC50 values, MC38-hClaudin18.2 cells, 48-72 hours, AlamarBlue) | IC50 ([1]; 72 h, read-out: IC50 values (nM), HEK293-hClaudin18.2 cells, 72 hours, AlamarBlue) [nM] | pIC50 ([1]; read-out: IC50 values, HEK293-hClaudin18.2 cells, 72 hours, AlamarBlue) | ratio of Calreticulin(+)/PI(−) cells [2] | tumor inhibitory effect [3]
CC[C@@]1(O)C(=O)OCc2c1cc1n(c2=O)Cc2c-1nc1cc(F)c(C)c3c1c2[C@@H](N)CC3 [Exatecan] | 2.01 | 4.1 | 8.39 | 0.51 | 9.29 | significantly raised | –
CC[C@@]1(O)C(=O)OCc2c1cc1n(c2=O)Cc2c-1nc1cc(F)c(C)c3c1c2[C@@H](NC(=O)CO)CC3 [Dxd] | – | – | – | – | – | significantly raised | –
COc1cc2c(cc1OC)CN(CCc1ccc(NC(=O)c3cc(OC)c(OC)cc3NC(=O)c3cnc4ccccc4c3)cc1)CC2 [Tariquidar] | – | – | – | – | – | – | has no tumor inhibitory effect
